Where two headings read alike, the source gives them in different places.
Legend:
HOP-62 [1] = test: in vitro test at 1.0×10^−5 M, Non-small cell lung cancer cell; assay type: cell-based; conditions: 1.0×10^−5 molal concentration (M)
HCC-2998 = test: in vitro test at 1.0×10^−5 M, Colorectal cancer cell; assay type: cell-based; conditions: 1.0×10^−5 molal concentration (M)
LOX IMV1 = test: in vitro test at 1.0×10^−5 M, Skin cancer cell; assay type: cell-based; conditions: 1.0×10^−5 molal concentration (M)
[2] = test system: different cancer cell lines; test: in vitro test at 1.0×10^−5 M, summary over the cell lines; assay type: cell-based; parameters: unit not given here; conditions: 1.0×10^−5 molal concentration (M)
CCRF-CEM [3] = test system: CCRF-CEM
HL-60(TB) [4] = test system: HL-60(TB)
K-562 [5] = test system: K-562
MOLT-4 [6] = test system: MOLT-4
RPMI-8226 [7] = test system: RPMI-8226
A549/ATCC [8] = test system: A549/ATCC
HOP-62 [9] = test system: HOP-62
NCI-H226 [10] = test system: NCI-H226
NCI-H23 [11] = test system: NCI-H23
NCI-H460 [12] = test system: NCI-H460
NCI-H522 [13] = test system: NCI-H522
CCRF-CEM [14] = test: cells; conditions: Homo sapiens
HL-60(TB) [15] = test: cells; conditions: Homo sapiens, HL-60
K-562 [16] = test: cells; conditions: Homo sapiens, K562
PC-3 [17] = test system: PC-3
MOLT-4 [18] = test: cells; conditions: Homo sapiens, MOLT-4
DU-145 [19] = test system: DU-145
RPMI-8226 [20] = test: cells; conditions: Homo sapiens, RPMI-8226
A549/ATCC [21] = test: cells; conditions: Homo sapiens, A549
EKVX = test: cells; conditions: Homo sapiens
HOP-62 [22] = test: cells; conditions: Homo sapiens, HOP-62
HOP-92 = test: cells; conditions: Homo sapiens, HOP-92
NCI-H226 [23] = test: cells; conditions: Homo sapiens, NCI-H226
NCI-H23 [24] = test: cells; conditions: Homo sapiens, NCI-H23
NCI-H460 [25] = test: cells; conditions: Homo sapiens, NCI-H460
NCI-H522 [26] = test: cells; conditions: Homo sapiens, NCI-H522
PC-3 [27] = test: cells; conditions: Homo sapiens, PC-3
DU-145 [28] = test: cells; conditions: Homo sapiens, DU-145

CCc1nc2ccc3c(c2[nH]1)C(=O)c1ccccc1C3=O [No. 4, 2-Ethyl-1(3)H-anthra[1,2-d]imidazole-6,11-dione]
inhibition effect on cancer cell line (Table 2 value) (HOP-62 [1]): 97.73
inhibition effect on cancer cell line (Table 2 value) (HCC-2998): 67.67
inhibition effect on cancer cell line (Table 2 value) (LOX IMV1): 39.98
Mean [2]: 58.42
TGI (CCRF-CEM [3]; CCRF-CEM): >1.00E−4
Percent Growth (CCRF-CEM [3]; Log10 Concentration −4.0): 15%
Percent Growth (CCRF-CEM [3]; Log10 Concentration −5.0): 51%
Percent Growth (CCRF-CEM [3]; Log10 Concentration −6.0): 95%
Percent Growth (CCRF-CEM [3]; Log10 Concentration −7.0): 94%
Percent Growth (CCRF-CEM [3]; Log10 Concentration −8.0): 103%
TGI (HL-60(TB) [4]; HL-60(TB)): >1.00E−4
Percent Growth (HL-60(TB) [4]; Log10 Concentration −4.0): 19%
Percent Growth (HL-60(TB) [4]; Log10 Concentration −5.0): 43%
Percent Growth (HL-60(TB) [4]; Log10 Concentration −6.0): 101%
Percent Growth (HL-60(TB) [4]; Log10 Concentration −7.0): 100%
Percent Growth (HL-60(TB) [4]; Log10 Concentration −8.0): 100%
TGI (K-562 [5]; K-562): >1.00E−4
Percent Growth (K-562 [5]; Log10 Concentration −4.0): 48%
Percent Growth (K-562 [5]; Log10 Concentration −5.0): 63%
Percent Growth (K-562 [5]; Log10 Concentration −6.0): 87%
Percent Growth (K-562 [5]; Log10 Concentration −7.0): 92%
Percent Growth (K-562 [5]; Log10 Concentration −8.0): 94%
Percent Growth (MOLT-4 [6]; Log10 Concentration −4.0): −1%
Percent Growth (MOLT-4 [6]; Log10 Concentration −5.0): 49%
Percent Growth (MOLT-4 [6]; Log10 Concentration −6.0): 93%
Percent Growth (MOLT-4 [6]; Log10 Concentration −7.0): 96%
Percent Growth (MOLT-4 [6]; Log10 Concentration −8.0): 98%
TGI (MOLT-4 [6]; MOLT-4): 9.51E−5
Percent Growth (RPMI-8226 [7]; Log10 Concentration −4.0): −12%
Percent Growth (RPMI-8226 [7]; Log10 Concentration −5.0): 12%
Percent Growth (RPMI-8226 [7]; Log10 Concentration −6.0): 73%
Percent Growth (RPMI-8226 [7]; Log10 Concentration −7.0): 81%
Percent Growth (RPMI-8226 [7]; Log10 Concentration −8.0): 97%
TGI (RPMI-8226 [7]; RPMI-8226): 3.21E−5
TGI (A549/ATCC [8]; A549/ATCC): >1.00E−4
Percent Growth (A549/ATCC [8]; Log10 Concentration −4.0): 17%
Percent Growth (A549/ATCC [8]; Log10 Concentration −5.0): 60%
Percent Growth (A549/ATCC [8]; Log10 Concentration −6.0): 97%
Percent Growth (A549/ATCC [8]; Log10 Concentration −7.0): 100%
Percent Growth (A549/ATCC [8]; Log10 Concentration −8.0): 91%
TGI (HOP-62 [9]; HOP-62): >1.00E−4
Percent Growth (HOP-62 [9]; Log10 Concentration −4.0): 38%
Percent Growth (HOP-62 [9]; Log10 Concentration −5.0): 72%
Percent Growth (HOP-62 [9]; Log10 Concentration −6.0): 87%
Percent Growth (HOP-62 [9]; Log10 Concentration −7.0): 94%
Percent Growth (HOP-62 [9]; Log10 Concentration −8.0): 90%
Percent Growth (NCI-H226 [10]; Log10 Concentration −4.0): 22%
Percent Growth (NCI-H226 [10]; Log10 Concentration −5.0): 63%
Percent Growth (NCI-H226 [10]; Log10 Concentration −6.0): 85%
Percent Growth (NCI-H226 [10]; Log10 Concentration −7.0): 89%
Percent Growth (NCI-H226 [10]; Log10 Concentration −8.0): 85%
TGI (NCI-H226 [10]; NCI-H226): >1.00E−4
Percent Growth (NCI-H23 [11]; Log10 Concentration −4.0): 21%
Percent Growth (NCI-H23 [11]; Log10 Concentration −5.0): 49%
Percent Growth (NCI-H23 [11]; Log10 Concentration −6.0): 74%
Percent Growth (NCI-H23 [11]; Log10 Concentration −7.0): 88%
Percent Growth (NCI-H23 [11]; Log10 Concentration −8.0): 92%
TGI (NCI-H23 [11]; NCI-H23): >1.00E−4
Percent Growth (NCI-H460 [12]; Log10 Concentration −4.0): 2%
Percent Growth (NCI-H460 [12]; Log10 Concentration −5.0): 25%
Percent Growth (NCI-H460 [12]; Log10 Concentration −6.0): 74%
Percent Growth (NCI-H460 [12]; Log10 Concentration −7.0): 82%
Percent Growth (NCI-H460 [12]; Log10 Concentration −8.0): 84%
TGI (NCI-H460 [12]; NCI-H460): >1.00E−4
Percent Growth (NCI-H522 [13]; Log10 Concentration −4.0): 32%
Percent Growth (NCI-H522 [13]; Log10 Concentration −5.0): 54%
Percent Growth (NCI-H522 [13]; Log10 Concentration −6.0): 87%
Percent Growth (NCI-H522 [13]; Log10 Concentration −7.0): 88%
Percent Growth (NCI-H522 [13]; Log10 Concentration −8.0): 89%
TGI (NCI-H522 [13]; NCI-H522): >1.00E−4
GI50 (CCRF-CEM [14]): 10.9 µM
GI50 (HL-60(TB) [15]): 7.53 µM
GI50 (K-562 [16]): 78.3 µM
Percent Growth (PC-3 [17]; Log10 Concentration −4.0): 29%
Percent Growth (PC-3 [17]; Log10 Concentration −5.0): 54%
Percent Growth (PC-3 [17]; Log10 Concentration −6.0): 93%
Percent Growth (PC-3 [17]; Log10 Concentration −7.0): 100%
Percent Growth (PC-3 [17]; Log10 Concentration −8.0): 96%
TGI (PC-3 [17]; PC-3): >1.00E−4
GI50 (MOLT-4 [18]): 9.31 µM
TGI (DU-145 [19]; DU-145): >1.00E−4
Percent Growth (DU-145 [19]; Log10 Concentration −4.0): 24%
Percent Growth (DU-145 [19]; Log10 Concentration −5.0): 37%
Percent Growth (DU-145 [19]; Log10 Concentration −6.0): 88%
Percent Growth (DU-145 [19]; Log10 Concentration −7.0): 98%
Percent Growth (DU-145 [19]; Log10 Concentration −8.0): 98%
GI50 (RPMI-8226 [20]): 2.42 µM
GI50 (A549/ATCC [21]): 17.1 µM
GI50 (EKVX): 1.6 µM
GI50 (HOP-62 [22]): 44.2 µM
GI50 (HOP-92): 7.38 µM
GI50 (NCI-H226 [23]): 20.8 µM
GI50 (NCI-H23 [24]): 9.17 µM
GI50 (NCI-H460 [25]): 3.07 µM
GI50 (NCI-H522 [26]): 15.4 µM
GI50 (PC-3 [27]): 14.4 µM
GI50 (DU-145 [28]): 5.62 µM
